Laboratory results: article PMC9736291 (International Journal of Molecular Sciences, 2022)
Like-named read-outs stand apart in the source and are kept apart here.

Key:
[1] = tested on: HeLa cells; conditions: cited from earlier work
[2] = target: human MDR1 (P-glycoprotein, ABCB1) (Homo sapiens, UniProt P08183); assay: in vitro; conditions: dog; for Papp A→B: MDCK-MDR1, Papp A–B; for Papp B→A: MDCK-MDR1, Papp B–A
[3] = tested on: PrP^C; format: cell-based, human; conditions: differentiated T98G cells
[4] = in vitro; conditions: Atp1a1^S/S (gene-edited), mouse, brain homogenate
[5] = in vivo; conditions: Atp1a1^S/S (gene-edited), mouse
[6] = tested on: PrP^C; format: cell-based, human; conditions: ReN VM ATP1A1^r/r cells whose ATP1A1 does not bind CGs
[7] = cited from earlier work
[8] = Atp1a1^S/S (gene-edited), mouse, in vivo; for Abrain / Cbrain (mean total brain concentration) / Cu,brain (unbound brain concentration): 0.6 mg/kg
[9] = tested on: PrP^C; format: cell-based, human
[10] = in vitro; conditions: both, human, brain homogenate
[11] = in vitro; conditions: guinea pig, plasma
[12] = tested on: ReN VM cells; conditions: human
[13] = in vitro; conditions: guinea pig, brain homogenate
[14] = target: T1, human MDR1 (Homo sapiens, UniProt P08183); conditions: dog, MDCK-MDR1
T1 sequence (P08183 whole entry): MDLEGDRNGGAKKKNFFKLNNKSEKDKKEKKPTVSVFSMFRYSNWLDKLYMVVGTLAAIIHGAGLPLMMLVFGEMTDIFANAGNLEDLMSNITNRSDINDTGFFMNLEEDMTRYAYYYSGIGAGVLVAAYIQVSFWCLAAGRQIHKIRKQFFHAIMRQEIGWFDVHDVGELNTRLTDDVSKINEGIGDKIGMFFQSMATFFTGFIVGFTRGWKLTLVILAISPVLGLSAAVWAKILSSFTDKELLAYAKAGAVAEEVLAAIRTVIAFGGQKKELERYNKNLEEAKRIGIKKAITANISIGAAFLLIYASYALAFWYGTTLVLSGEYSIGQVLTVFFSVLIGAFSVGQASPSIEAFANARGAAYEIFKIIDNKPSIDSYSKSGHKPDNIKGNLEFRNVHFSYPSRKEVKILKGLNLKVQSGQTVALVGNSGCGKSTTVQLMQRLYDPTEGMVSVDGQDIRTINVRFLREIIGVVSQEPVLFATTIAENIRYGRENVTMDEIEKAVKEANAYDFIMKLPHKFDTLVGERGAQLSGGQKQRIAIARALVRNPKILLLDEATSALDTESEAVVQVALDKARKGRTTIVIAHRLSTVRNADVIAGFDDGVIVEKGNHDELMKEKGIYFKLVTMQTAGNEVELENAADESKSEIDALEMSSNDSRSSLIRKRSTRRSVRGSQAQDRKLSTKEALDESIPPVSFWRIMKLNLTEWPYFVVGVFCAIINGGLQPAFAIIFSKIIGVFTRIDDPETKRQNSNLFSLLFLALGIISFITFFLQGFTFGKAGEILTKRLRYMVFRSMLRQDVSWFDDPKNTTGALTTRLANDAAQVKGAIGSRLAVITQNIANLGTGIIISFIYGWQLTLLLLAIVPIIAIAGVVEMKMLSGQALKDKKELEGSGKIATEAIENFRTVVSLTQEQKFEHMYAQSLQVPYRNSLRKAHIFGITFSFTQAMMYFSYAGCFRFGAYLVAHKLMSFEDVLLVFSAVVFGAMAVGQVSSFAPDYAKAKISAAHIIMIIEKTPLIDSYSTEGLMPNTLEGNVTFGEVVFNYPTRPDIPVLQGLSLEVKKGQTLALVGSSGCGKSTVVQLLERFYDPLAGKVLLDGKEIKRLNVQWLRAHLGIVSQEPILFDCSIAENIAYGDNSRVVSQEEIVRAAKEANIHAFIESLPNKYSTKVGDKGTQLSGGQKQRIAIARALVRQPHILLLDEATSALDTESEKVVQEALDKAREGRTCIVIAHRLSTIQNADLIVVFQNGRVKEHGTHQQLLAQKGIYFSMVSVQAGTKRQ

[15] = target: T1, human MDR1; design: host or cells: MDCKII (canine kidney) cells, canine MDR1 deleted, human MDR1 gene inserted; method as in PMID 22906709, PMID 15620875; conditions: published values; cited from earlier work
[16] = in vivo, po; cited from earlier work
[17] = tested on: ReN VM cells; conditions: cited from earlier work
[18] = in vivo, iv; cited from earlier work

Chain of human MDR1 (P-glycoprotein, ABCB1) (P08183 whole entry): as above

SMILES | Papp A→B [2] [×10⁻⁶ cm/s] | Papp B→A [2] [×10⁻⁶ cm/s] | fraction unbound [4] | Kp uu [5] | Vu,brain [8] [mL/g brain] | Abrain ([8]; sc) [ng/g brain] | Cbrain (mean total brain concentration) ([8]; sc) [nM] | Cu,brain (unbound brain concentration) ([8]; sc) [nM] | fraction unbound [10] | fraction unbound [11] | toxicity threshold (concentration at which all three cellular health indicators dropped to 75% of untreated) [12] [nM] | fraction unbound [13] | estimated total brain concentration attainable in human brains [nM] | Papp B–A [14] | other results
COC1CC(OC2CCC3(C)C(CCC4C3CCC3(C)C(C5=CC(=O)OC5)C(OC(C)=O)CC43O)C2)OC(C)C1=O (centres unmarked) [KDC203, 4′-dehydro-oleandrin] | 11.6 | 41.9 | 0.33 | 0.44 | 2.90 | 16.75 | 30.46 | 10.05 | 0.395 | 0.359 | 46 | 0.294 | 27 | 70.60 | IC50 [1]: 46 nM; reduction in PrP^C levels [3]: recapitulate the KDC203-dependent reduction in PrP^C levels; reduction in PrP^C levels [6]: no KDC203-mediated reduction in PrP^C levels was observed; oral effectiveness relative to oleandrin (lethal doses oral versus intravenous), higher by ([7]; cats): approximately 20%; oral toxicity relative to oleandrin ([7]; in vivo, po): almost twofold lower; brain levels relative to heart levels ([8]; sc): 3.5 fold; total brain concentration of KDC203 relative to oleandrin ([8]; sc): 1.5 fold; maximum reduction in steady-state PrP^C levels (3F4-reactive signals) [9]: 84%; concentrations at which cytotoxicity observed [12]: > 40 nM; estimated unbound concentration attainable in human brains: ~10 nM; Papp A–B [14]: 7.24; reduction of extrusion on addition of Zosuquidar [14]: more than 50%
C[C@H]1O[C@@H](O[C@H]2[C@@H](O)C[C@H](O[C@H]3[C@@H](O)C[C@H](O[C@H]4CC[C@@]5(C)[C@H](CC[C@@H]6[C@@H]5C[C@@H](O)[C@]5(C)[C@@H](C7=CC(=O)OC7)CC[C@]65O)C4)O[C@@H]3C)O[C@@H]2C)C[C@H](O)[C@@H]1O [digoxin] |  |  |  |  |  |  |  |  |  |  |  |  |  |  | PappA-B, published value [15]: 0.5 ×10⁻⁶ cm/s
CO[C@H]1C[C@H](O[C@H]2CC[C@@]3(C)[C@H](CC[C@@H]4[C@@H]3CC[C@]3(C)[C@@H](C5=CC(=O)OC5)[C@@H](OC(C)=O)C[C@]43O)C2)O[C@@H](C)[C@@H]1O [oleandrin, reference compound] | 7.06 | 146 | 0.24 | 0.27 | 3.98 | 10.58 | 19.23 | 4.61 | 0.316 | 0.219 | 2.7 | 0.219 | ≤ 18 | 145.79 | plasma levels [16]: 3 nM; concentrations at which toxic [17]: exceeding 4 nM; cerebrum levels relative to plasma levels [18]: 6 fold
